Biological target: hCA II (Homo sapiens, UniProt P00918)
Experiment: stopped-flow CO2 hydrase assay, hCA II inhibition
Assay type: biochemical
Conditions: ratio of Ki values versus 3b

fold potency decrease against hCA II when compared to 3b	fold more potent against hCA II than ferrocenyl derivative 3b	Substance
4.5 fold		[{(η^5-C5H4)–CH = N–N(H)C(O)–CH2CH2–NH–C6H4-4–SO2NH2}]FeCp [3c]
	8 fold	[{(η^5-C5H4)–CH=N–N(H)C(O)–C6H4-4–SO2NH2}]Re(CO)3 [1b]
	8 fold	[{(η^5-C5H4)–CH = N–N(H)C(O)–C6H4-4–SO2NH2}]Mn(CO)3 [2b]

— PMC6327986 (Journal of Enzyme Inhibition and Medicinal Chemistry, 2019)
